Laboratory results from US20220281902A1, “MIT[…] IMPROVE METABOLIC SYNDROME DURING AGING” (The Board of Trustees of the Leland Stanford Junior …, priority 2019, published 2022).

Assays:
[1] = target: T1, cytochrome c oxidase (CcO) (Mus musculus, UniProt P00397); experiment: CcO activity in liver mitochondria of treated mice; format: in vivo
T1 construct: Mouse livers were extracted, and liver mitochondria were obtained using a mitochondria isolation kit; from tissue; host or cells: liver mitochondria of treated and control C57BL/6 mice, isolated with a Sigma-Aldrich mitochondria isolation kit; activity kit Sigma-Aldrich CYTOCOX1
Procedure: Measurement of CcO activity in liver mitochondria. Mouse livers were extracted, and liver mitochondria were obtained using a mitochondria isolation kit (Sigma-Aldrich). CcO activity in liver mitochondria was measured using a cytochrome c oxidase assay kit (Sigma-Aldrich, CYTOCOX1, USA.

[2] = Body weight variations on high fat diet (HFD, 60% fat); format: in vivo, C57BL/6 mice; details: for body weight gain on HFD: after 8 weeks HFD; for BW contrast of treated vs control: end of 8-week HFD
Procedure: Animal experimentation. Male C57BL/6 mice (Shanghai SLAC Laboratory animal Co. Ltd) were group-housed in a barrier facility with 12-hr light/12-hr dark cycles. All mice received a regular chow diet ad libitum (PicoLab 5053 Rodent Diet 20; Lab Diets) except for HFD (40-60%) and CR models. The compound was then administered in drinking water ad libitum at either 90-100 or 100-120 mg/kg/day, based on the previously measured water consumption.
The C57BL/6 mice were maintained on a standard purified mouse diet (PicoLab 5053 Rodent Diet 20; Lab Diets) until they reached 2 months of age when the treatments started. The CR animals were subjected to a lifelong restriction on PicoLab 5053 Rodent Diet 20; Lab Diets, starting at 12 weeks of age, with a daily food allotment of 60% of that eaten by the ad lib animals. Besides CR animals, the C57BL/6 groups in this study were fed the standard high fat diet (HFD; 60 or 40% fat). Body weights were measured weekly at the same time each week. Food and water intake were measured once every month for 3-6 consecutive days at the same time each month. Water consumption was measured for 2 weeks prior to the start of administration. Compound was generated and modified for better permeability in to mitochondria, evaluated by HPLC, was 96%-97%. The administration began at 8 weeks of age and continued for 16 months, until they became 18-month-old. The drug solution was prepared weekly in small batches by dissolving the compound into autoclaved water at the respective doses and filtering sterilely. Aliquots were collected from each batch and measured by HPLC to confirm stability of the compound. Water bottles and cages were changed twice weekly. Fed and fasted blood samples were collected monthly at the same time each month from tail and used for glucose, insulin, blood cell counts, lipid analysis using assay kits (Robio, China) and HbA1C assay kit (Crystal chem, USA) following the manufacturer protocol. IPGTTs and ITTs were conducted throughout morning and early afternoon after fasting for 16-18 hrs. and 4 hrs., respectively, once before start of treatment administration began and every 3 months thereafter. Rectal body temperature was measured monthly, as described previously. Whole blood samples, and histopathology were analyzed after 14 months of treatment. Tissue samples were collected after 10-14 months from mice, sacrificed and used for WB and qPCR microarray, and other analyses. All animal studies were approved by the Shanghai Jiao Tong University Animal Studies Committee and were in accordance with NIH guidelines. (Number of mice; SD=30, HFD=10, CR=20).

[3] = system: ASC1, Wdnm1-like, FGF-21, PGC-1α transcripts; experiment: qPCR of adipogenesis regulators and white fat inducing transcripts in visceral fat; format: in vivo, mouse
Procedure: Gene expression & RT qPCR Analyses. Total RNA was isolated using a commercially available kit (OMEGA bio-tek, R6812-02) according to the manufacturer's instructions. cDNA was generated using the PrimeScript RT reagent kit (TAKARA, RR047A). Gene expression were determined by qPCR as described in the product manual. The analysis was evaluated by Bio-Rad Real-Time System (CFX Connect™).
RNAs from 10 mice (5 treated and 5 Ctrl.) VF fat or livers were isolated by using omega Bio-Tek reagents, and cDNA was transcribed by (TAKARA). qPCR was then performed by using iQ SYBR Green mastermix bioscience on a CFX96 Real-Time System/C1000 Thermal Cycler (Bio-Rad).

HeLa cells = experiment: In vivo cervical cancer mouse model; parameters: species or system mice
Procedure: To investigate the effects of an example compound on a cervical cancer mouse model, HeLa cells were introduced to the back of mice (five groups, 5-6 mice in each group). After the tumor volume reached about 200 mm^3, compound HG1a-1 solution (5, 20, 50 mg/kg) was dosed by intraperitoneal (IP) injection, every second day for ten days. Control mice were dosed with Saline and Taxol solution (PTX, 20 mg/kg). Tumor weight and volume were measured.

[4] = 5, 20 and 50 mg/kg IP, after 10 days

Cc1ncsc1CCOC(=O)C[P+](c1ccccc1)(c1ccccc1)c1ccccc1.[Br-] [HG1a-1, (2-(2-(4-Methylthiazol-5-yl)Ethoxy)-2-Oxoethyl) Triphenylphosphonium Bromide]
CcO inhibition activity ([1]; 2 month old mice): 67% | CcO function higher than controls of the same model ([1]; 12-month-long treated mice): about 20% | CcO function vs same age subjects receiving a single dose ([1]; 12-month-long treated mice): one-fold greater | CcO inhibition activity ([1]; 14 month old mice): 65% | BW gain on HFD ([2]; 14 month old mice already treated for 12 months, 8 week HFD): resisted the BW gain with HFD until 5 weeks | body weight gain on HFD ([2]; aged group (12 month old)): 12% | BW contrast of treated vs control ([2]; aged group): 13% | body weight gain on HFD ([2]; younger group (12 week old)): 18% | BW contrast of treated vs control ([2]; younger group): 2-4% | ASC1 transcript decrease vs control ([3]; 14 months of treatment): > 9 fold | FGF-21 transcript ([3]; 14 months of treatment): remained unchanged | Wdnm1-like transcript decrease vs control ([3]; 14 months of treatment): 30 fold | PGC-1α transcript ([3]; aged mice): increased | tumor size (HeLa cells; 5, 20, 50 mg/kg IP every second day for ten days, with increasing dose): decreased | tumor volume relative to saline control (HeLa cells; [4]): decreased | tumor weight relative to saline control (HeLa cells; [4]): decreased
